Activity and IC50 data for 7 molecules are collected here from ChEMBL document CHEMBL2321714, “Novel Aza-resveratrol analogs: synthesis, characterization and anticancer activity against breast cancer cell lines” (Bioorg Med Chem Lett, 2013).

One data set deals with MCF-10A. The experiment in a line: Cytotoxicity against human MCF10A cells at 50 uM by MTT assay. It counts as cell-based. For orientation: Tetrazolium assays rely on reduction of a dye to a coloured formazan, in cell work by metabolically active cells.
Data set [1] relates to T47D. The data set can be described thus: Cytotoxicity against human T47D cells at 50 uM by MTT assay. It counts as functional.
Data set [2] concerns MDA-MB-231. The data set can be described thus: Cytotoxicity against human MDA-MB-231 cells at 50 uM by MTT assay. It counts as functional.
In data set [3] the test system is T47D. The data set can be described thus: Cytotoxicity against human T47D cells by MTT assay. It counts as functional, cell-based.
Data set [4] deals with MDA-MB-231. The data set can be described thus: Cytotoxicity against human MDA-MB-231 cells by MTT assay. It counts as functional, cell-based.
For data set [5], the system named is T47D. The experiment in a line: Induction of autophagy in human T47D cells assessed as increase in Beclin-1 expression at 50 uM after 12 hrs by Western blot analysis. It counts as functional, cell-based.
Data set [6] relates to MDA-MB-231. The data set can be described thus: Induction of autophagy in human MDA-MB-231 cells assessed as increase in Beclin-1 expression at 50 uM after 12 hrs by Western blot analysis. It counts as functional, cell-based. A general note: A western blot detects proteins with antibodies after separation by electrophoresis.

The structures appear in SMILES notation. Activity calls are given as the source filed them. No cut-off for these calls is given here.

In the case of `Oc1ccc(/C=N/c2ccc(F)cc2)cc1O`, the Activity entry in the data set with MCF-10A is “Non-toxic”. The outcome with T47D [1] and in the data set on MDA-MB-231 [2] was Active.

One may read the IC50 as the concentration needed to halve the response being measured. Low values mean greater potency in that assay, high ones weaker potency in that assay. As to `Oc1ccc(/C=C/c2cc(O)cc(O)c2)cc1` [RESVERATROL], the IC50 stood at 76 µM with T47D [3] and 66 µM in the data set with MDA-MB-231 [4]. In addition, the Activity in the data set with T47D [1] and with MDA-MB-231 [2] was 40% in each case.

As for `Oc1ccc(/N=C/c2ccc(O)c(O)c2)cc1`, the IC50 with T47D [3] stood at 44 µM; with MDA-MB-231 [4], 29 µM. Further, the outcome in the data set on T47D [5] and with MDA-MB-231 [6] was Active. The Activity result in the data set with MCF-10A was “Non-toxic”; with T47D [1], 40%; in the data set on MDA-MB-231 [2], 65%.

In the case of `Cc1ccc(/N=C/c2ccc(O)c(O)c2)cc1`, the concentration for half-maximal inhibition (IC50) in the data set with T47D [3] amounted to 32 µM; in the data set on MDA-MB-231 [4] it was 21 µM. Besides, the result with T47D [5] and in the data set on MDA-MB-231 [6] was Active. In addition, the Activity entry in the data set on MCF-10A was “Non-toxic”; in the data set on T47D [1] it was 40%; with MDA-MB-231 [2] it was 65%.

As for `Oc1ccc(/C=N/c2ccc3[nH]ccc3c2)cc1O`, the Activity result in the data set on MCF-10A is on record as “Non-toxic”; in the data set with T47D [1], 40%. The outcome in the data set with MDA-MB-231 [2] was inactive.

`Oc1ccc(/C=N/c2ccc(Cl)cc2)cc1O`: in the data set on MCF-10A, the Activity result is listed as “Non-toxic”. Besides, the outcome in the data set with T47D [1] and in the data set on MDA-MB-231 [2] was Active.

Regarding `COc1ccc(/N=C/c2ccc(O)c(O)c2)cc1`, the Activity entry with MCF-10A is given as “Non-toxic”. In addition, the result in the data set with T47D [1] and with MDA-MB-231 [2] was Active.
